In patent publication US7846941B2, “Compounds modulating c-kit and c-fms activity and uses therefor” (Plexxikon, Inc., priority 2005, dated 2010):

Assays:
[1] = target: c-kit (Homo sapiens, UniProt P10721); test: c-kit assays of Examples 40 and 41 (AlphaScreen and 33P kinase assays, M-07e proliferation and phosphorylation)
[2] = test system: cells with activating c-kit mutations; settings: mutations in the catalytic region of c-kit; cited from earlier work

Sequence of c-kit (P10721 with tags, fused parts or gaps): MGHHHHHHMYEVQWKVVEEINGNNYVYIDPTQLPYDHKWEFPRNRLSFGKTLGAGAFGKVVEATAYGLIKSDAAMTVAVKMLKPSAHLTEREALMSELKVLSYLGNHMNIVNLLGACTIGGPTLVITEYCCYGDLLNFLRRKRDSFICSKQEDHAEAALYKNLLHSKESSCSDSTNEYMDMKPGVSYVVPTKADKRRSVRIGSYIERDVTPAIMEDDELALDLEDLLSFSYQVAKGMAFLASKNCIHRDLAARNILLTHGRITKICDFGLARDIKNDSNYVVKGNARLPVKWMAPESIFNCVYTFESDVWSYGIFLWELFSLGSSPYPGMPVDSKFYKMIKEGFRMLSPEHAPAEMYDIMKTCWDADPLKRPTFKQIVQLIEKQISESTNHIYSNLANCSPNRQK

SMILES	IC50 [1]	inhibition of cells with c-kit mutations [2]
CC(C)(C)Oc1ccc(Cc2c[nH]c3ncccc23)cn1 [Compound P-0020, 3-(6-tert-Butoxy-pyridin-3-ylmethyl)-1H-pyrrolo[2,3-b]pyridine]	< 1 µM	
FC(F)(F)c1ccc(CNc2ccc(Cc3c[nH]c4ncc(Cl)cc34)cn2)cc1 [Compound P-0054, [5-(5-Chloro-1H-pyrrolo[2,3-b]pyridin-3-ylmethyl)-pyridin-2-yl]-(4-trifluoromethyl-benzyl)-amine]	< 1 µM	
Clc1cccc(COc2ccc(Cc3c[nH]c4ncccc34)cn2)c1 [Compound P-0055, 3-[6-(3-Chloro-benzyloxy)-pyridin-3-ylmethyl]-1H-pyrrolo[2,3-b]pyridine]	< 1 µM	
Clc1ccc(COc2ccc(Cc3c[nH]c4ncccc34)cn2)cc1 [Compound P-0056, 3-[6-(4-Chloro-benzyloxy)-pyridin-3-ylmethyl]-1H-pyrrolo[2,3-b]pyridine]	< 1 µM	
FC(F)(F)c1cccc(COc2ccc(Cc3c[nH]c4ncccc34)cn2)c1 [Compound P-0057, 3-[6-(3-Trifluoromethyl-benzyloxy)-pyridin-3-ylmethyl]-1H-pyrrolo[2,3-b]pyridine]	< 1 µM	
COc1cnc2[nH]cc(Cc3ccc(NCc4ccc(Cl)cc4)nc3)c2c1 [Compound P-0058, (4-Chloro-benzyl)-[5-(5-methoxy-1H-pyrrolo[2,3-b]pyridin-3-ylmethyl)-pyridin-2-yl]-amine]	< 1 µM	
Clc1ccc(CNc2ccc(Cc3c[nH]c4ncc(Cl)cc34)cn2)cc1 [Compound P-0059, (4-Chloro-benzyl)-[5-(5-chloro-1H-pyrrolo[2,3-b]pyridin-3-ylmethyl)-pyridin-2-yl]-amine]	< 1 µM	
CCN(CC)CCOc1cnc2[nH]cc(Cc3ccc(NCc4ccc(C(F)(F)F)cc4)nc3)c2c1 [Compound P-0060, {5-[5-(2-Diethylamino-ethoxy)-1H-pyrrolo[2,3-b]pyridin-3-ylmethyl]-pyridin-2-yl}-(4-trifluoromethyl-benzyl)-amine]	< 1 µM	
Oc1cnc2[nH]cc(Cc3ccc(NCc4ccc(C(F)(F)F)cc4)nc3)c2c1 [Compound P-0061, 3-[6-(4-Trifluoromethyl-benzylamino)-pyridin-3-ylmethyl]-1H-pyrrolo[2,3-b]pyridin-5-ol]	< 1 µM	
Oc1cnc2[nH]cc(Cc3ccc(NCc4ccc(Cl)cc4)nc3)c2c1 [Compound P-0062, 3-[6-(4-Chloro-benzylamino)-pyridin-3-ylmethyl]-1H-pyrrolo[2,3-b]pyridin-5-ol]	< 1 µM	
Clc1ccc(CNc2ccc(Cc3c[nH]c4ncc(OCCN5CCOCC5)cc34)cn2)cc1 [Compound P-0063, (4-Chloro-benzyl)-{5-[5-(2-morpholin-4-yl-ethoxy)-1H-pyrrolo[2,3-b]pyridin-3-ylmethyl]-pyridin-2-yl}-amine]	< 1 µM	
FC(F)(F)c1ccc(CNc2ccc(Cc3c[nH]c4ncc(OCCN5CCCC5)cc34)cn2)cc1 [Compound P-0064, {5-[5-(2-Pyrrolidin-1-yl-ethoxy)-1H-pyrrolo[2,3-b]pyridin-3-ylmethyl]-pyridin-2-yl}-(4-trifluoromethyl-benzyl)-amine]	< 1 µM	
FC(F)(F)c1ccc(CNc2ccc(Cc3c[nH]c4ncc(OCCN5CCOCC5)cc34)cn2)cc1 [Compound P-0065, {5-[5-(2-Morpholin-4-yl-ethoxy)-1H-pyrrolo[2,3-b]pyridin-3-ylmethyl]-pyridin-2-yl}-(4-trifluoromethyl-benzyl)-amine]	< 1 µM	
CCN(CC)CCCOc1cnc2[nH]cc(Cc3ccc(NCc4ccc(C(F)(F)F)cc4)nc3)c2c1 [Compound P-0066, {5-[5-(3-Diethylamino-propoxy)-1H-pyrrolo[2,3-b]pyridin-3-ylmethyl]-pyridin-2-yl}-(4-trifluoromethyl-benzyl)-amine]	< 1 µM	
CCN(CC)CCCOc1cnc2[nH]cc(Cc3ccc(NCc4ccc(Cl)cc4)nc3)c2c1 [Compound P-0069, (4-Chloro-benzyl)-{5-[5-(3-diethylamino-propoxy)-1H-pyrrolo[2,3-b]pyridin-3-ylmethyl]-pyridin-2-yl}-amine]	< 1 µM	
O=S(=O)(Nc1ccc(Cc2c[nH]c3ncccc23)cn1)c1ccc(C(F)(F)F)cc1 [Compound P-0071, N-[5-(1H-Pyrrolo[2,3-b]pyridin-3-ylmethyl)-pyridin-2-yl]-4-trifluoromethyl-benzenesulfonamide]	< 1 µM	
O=C(Nc1ccc(Cc2c[nH]c3ncccc23)cn1)c1ccc(C(F)(F)F)cc1 [Compound P-0072, N-[5-(1H-Pyrrolo[2,3-b]pyridin-3-ylmethyl)-pyridin-2-yl]-4-trifluoromethyl-benzamide]	< 1 µM	
O=C(Nc1ccc(Cc2c[nH]c3ncccc23)cn1)c1ccc(F)cc1 [Compound P-0073, 4-Fluoro-N-[5-(1H-pyrrolo[2,3-b]pyridin-3-ylmethyl)-pyridin-2-yl]-benzamide]	< 1 µM	
O=C(Nc1ccc(Cc2c[nH]c3ncccc23)cn1)c1ccc(Cl)cc1 [Compound P-0074, 4-Chloro-N-[5-(1H-pyrrolo[2,3-b]pyridin-3-ylmethyl)-pyridin-2-yl]-benzamide]	< 1 µM	
C[C@H](Nc1ccc(Cc2c[nH]c3ncccc23)cn1)c1ccc(Cl)cc1 [Compound P-0075, [(S)-1-(4-Chloro-phenyl)-ethyl]-[5-(1H-pyrrolo[2,3-b]pyridin-3-ylmethyl)-pyridin-2-yl]-amine]	< 1 µM	
Clc1ccc(NCc2ccc(Cc3c[nH]c4ncccc34)cn2)cc1 [Compound P-0078, (4-Chloro-phenyl)-[5-(1H-pyrrolo[2,3-b]pyridin-3-ylmethyl)-pyridin-2-ylmethyl]-amine]	< 1 µM	
Fc1nc(NCc2ccc(Cl)cc2)ccc1Cc1c[nH]c2ncccc12 [Compound P-0082, (4-Chloro-benzyl)-[6-fluoro-5-(1H-pyrrolo[2,3-b]pyridin-3-ylmethyl)-pyridin-2-yl]-amine]	< 1 µM	
Cc1ccc(NC(=O)c2ccc(CN3CCN(C)CC3)cc2)cc1Nc1nccc(-c2cccnc2)n1 [STI571]		did not inhibit

Second part, led by results:

IC50 [1]	SMILES	inhibition of cells with c-kit mutations [2]
< 1 µM	FC(F)(F)c1ccc(CNc2ccc(Cc3c[nH]c4ncccc34)cn2)cc1 [Compound P-0003, [5-(1H-Pyrrolo[2,3-b]pyridin-3-ylmethyl)-pyridin-2-yl]-(4-trifluoromethyl-benzyl)-amine]	
< 1 µM	Clc1ccc(CNc2ccc(Cc3c[nH]c4nccc(Cl)c34)cn2)cc1 [Compound P-0009, [5-(4-chloro-1H-pyrrolo[2,3-b]pyridin-3-ylmethyl)-pyridin-2-yl]-(4-chloro-benzyl)-amine]	
< 1 µM	COc1nc(NCc2ccc(C(F)(F)F)cc2)ccc1Cc1c[nH]c2ncccc12 [Compound P-0012, [6-Methoxy-5-(1H-pyrrolo[2,3-b]pyridin-3-ylmethyl)-pyridin-2-yl]-(4-trifluoromethyl-benzyl)-amine]	
< 1 µM	O=C(c1ccc(NCc2cccc(F)c2)nc1)c1c[nH]c2ncccc12 [Compound P-0016, [6-(3-Fluoro-benzylamino)-pyridin-3-yl]-(1H-pyrrolo[2,3-b]pyridin-3-yl)-methanone]	
< 1 µM	CC(C)Nc1ccc(C(=O)c2c[nH]c3ncccc23)cn1 [Compound P-0024, (6-Isopropylamino-pyridin-3-yl)-(1H-pyrrolo[2,3-b]pyridin-3-yl)-methanone]	
< 1 µM	CC(C)CNc1ccc(C(=O)c2c[nH]c3ncccc23)cn1 [Compound P-0025, (6-Isobutylamino-pyridin-3-yl)-(1H-pyrrolo[2,3-b]pyridin-3-yl)-methanone]	
< 1 µM	O=C(c1ccc(Nc2cccc(OCc3ccccc3)c2)nc1)c1c[nH]c2ncccc12 [Compound P-0026, [6-(3-Benzyloxy-phenylamino)-pyridin-3-yl]-(1H-pyrrolo[2,3-b]pyridin-3-yl)-methanone]	
< 1 µM	CC(C)CNc1ccc(Cc2c[nH]c3ncccc23)cn1 [Compound P-0028, Isobutyl-[5-(1H-pyrrolo[2,3-b]pyridin-3-ylmethyl)-pyridin-2-yl]-amine]	
< 1 µM	O=C(c1ccc(NCC2CC2)nc1)c1c[nH]c2ncccc12 [Compound P-0030, [6-(Cyclopropylmethyl-amino)-pyridin-3-yl]-(1H-pyrrolo[2,3-b]pyridin-3-yl)-methanone]	
< 1 µM	O=C(c1ccc(NCC2CCCCC2)nc1)c1c[nH]c2ncccc12 [Compound P-0031, [6-(Cyclohexylmethyl-amino)-pyridin-3-yl]-(1H-pyrrolo[2,3-b]pyridin-3-yl)-methanone]	
< 1 µM	c1cnc2[nH]cc(Cc3ccc(NCC4CC4)nc3)c2c1 [Compound P-0032, Cyclopropylmethyl-[5-(1H-pyrrolo[2,3-b]pyridin-3-ylmethyl)-pyridin-2-yl]-amine]	
< 1 µM	c1cnc2[nH]cc(Cc3ccc(NCC4CCCCC4)nc3)c2c1 [Compound P-0033, Cyclohexylmethyl-[5-(1H-pyrrolo[2,3-b]pyridin-3-ylmethyl)-pyridin-2-yl]-amine]	
< 1 µM	COc1cnc2[nH]cc(Cc3ccc(NCc4ccc(C(F)(F)F)cc4)nc3)c2c1 [Compound P-0053, [5-(5-Methoxy-1H-pyrrolo[2,3-b]pyridin-3-ylmethyl)-pyridin-2-yl]-(4-trifluoromethyl-benzyl)-amine]	
